PubChem BioAssay AID504685 (Sanford-Burnham Center for Chemical Genomics, 2011)
The source made the active and inactive calls. No rule for the calls is given here.

Molecular target: Bcl-2-related protein A1 (Mus musculus) (UniProt Q07440)
Experiment: off-target activity on mouse Bfl-1 – biochemical, counter-screen for UBC13 polyubiquitination inhibitor project, SAR follow-up (AID 504685)
Details: Bfl-1 counterscreen for UBC13 inhibitors

Structure (SMILES): CC1CCCC(C)N1CCCNC(=O)C1CCCN(c2ncnc3c2nc2n3CCCCC2)C1 (stereo not drawn)
- IC50: > 100 µM (inactive)

Structure (SMILES): O=C(NCC1CCN(Cc2ccc(F)cc2)CC1)C1CCCN(c2ncnc3c2nc2n3CCCCC2)C1 (stereo not drawn)
- IC50: > 100 µM (inactive)

Structure (SMILES): Cc1ccc(OCC(O)CN2CCN(CCN3C(=O)c4cccc5cccc(c45)C3=O)CC2)c(C)c1 (stereo not drawn)
- IC50: 97 µM

Structure (SMILES): O=C(CCCCCN1C(=O)c2cccc3cccc(c23)C1=O)NCc1cccnc1
- IC50: > 100 µM (inactive)

Structure (SMILES): CCN(Cc1ccccc1)S(=O)(=O)c1ccc(C(=O)N(CCCN(C)C)c2nc3cc4c(cc3s2)OCCO4)cc1
- IC50: 84 µM

Structure (SMILES): COc1cc2nc(N(CCCN(C)C)C(=O)c3ccc(S(=O)(=O)N4CCc5ccccc5C4)cc3)sc2cc1OC
- IC50: 69.3 µM

Structure (SMILES): O=C(NCCCN1CCN(c2ccccc2)CC1)C1CCCN(c2ncnc3c2nc2n3CCCCC2)C1 (stereo not drawn)
- IC50: > 100 µM (inactive)

Structure (SMILES): Cc1cc(NC(=O)Cn2c(=O)n(CCCCC(=O)NC3CCN(Cc4ccccc4)CC3)c(=O)c3ccccc32)n[nH]1
- IC50: > 100 µM (inactive)

Structure (SMILES): O=C1c2cccc3cccc(c23)C(=O)N1CCN1CCN(CC(O)COc2ccc(Cl)cc2)CC1 (stereo not drawn)
- IC50: > 100 µM (inactive)

Structure (SMILES): Cc1cccc(C)c1NC(=O)Cn1c(=O)n(CCCC(=O)NC2CCN(Cc3ccccc3)CC2)c(=O)c2ccccc21
- IC50: > 100 µM (inactive)

Structure (SMILES): Cc1cccc(OCC(O)CN2CCN(CCN3C(=O)c4cccc5cccc(c45)C3=O)CC2)c1C (stereo not drawn)
- IC50: > 100 µM (inactive)

Structure (SMILES): N#Cc1ccccc1Cn1c(=O)n(CCCC(=O)NC2CCN(Cc3ccccc3)CC2)c(=O)c2ccccc21
- IC50: > 100 µM (inactive)

Structure (SMILES): O=C1c2cccc3cccc(c23)C(=O)N1CC1CCN(CC(O)COc2ccc3ccccc3c2)CC1 (stereo not drawn)
- IC50: 68.5 µM

Structure (SMILES): O=C(CCCCn1c(=O)c2ccccc2n(Cc2ccccc2F)c1=O)NC1CCN(Cc2ccccc2)CC1
- IC50: > 100 µM (inactive)

Structure (SMILES): O=C(Nc1ccc(F)c(Cl)c1)C1CCN(c2ncnc3c2nc2n3CCCCC2)CC1
- IC50: > 100 µM (inactive)

Structure (SMILES): O=C(C1CCN(c2ncnc3c2nc2n3CCCCC2)CC1)N1CCN(Cc2ccccc2)CC1
- IC50: > 100 µM (inactive)

Structure (SMILES): COCCOC(=O)c1ccc(NC(=O)CCCCCN2C(=O)c3ccccc3C2=O)cc1
- IC50: > 100 µM (inactive)

Structure (SMILES): O=C(CCCCCN1C(=O)c2ccccc2C1=O)NCc1ccco1
- IC50: > 100 µM (inactive)

Structure (SMILES): CCC1CCCCN1CCCNC(=O)C1CCN(c2ncnc3c2nc2n3CCCCC2)CC1 (stereo not drawn)
- IC50: > 100 µM (inactive)

Structure (SMILES): COc1ccc(-c2oc3ncnc(N)c3c2-c2ccccc2)cc1
- IC50: > 100 µM (inactive)

Structure (SMILES): CCOc1ccc(NC(=O)Cn2c(=O)n(CCCC(=O)NC3CCN(Cc4ccccc4)CC3)c(=O)c3ccccc32)cc1
- IC50: > 100 µM (inactive)

Structure (SMILES): O=C(CCCCCN1C(=O)c2ccccc2C1=O)NCCc1nc2ccccc2[nH]1
- IC50: > 100 µM (inactive)

Structure (SMILES): Cc1ccc(-c2oc3ncnc(N)c3c2-c2ccc(C)cc2)cc1
- IC50: > 100 µM (inactive)

Structure (SMILES): CCN(Cc1ccccc1)S(=O)(=O)c1ccc(C(=O)N(CCCN(C)C)c2nc3cc(C)cc(C)c3s2)cc1
- IC50: > 100 µM (inactive)

Structure (SMILES): CN(C)CCCN(C(=O)c1ccc(S(=O)(=O)N2CCc3ccccc3C2)cc1)c1nc2ccc(F)cc2s1
- IC50: 60.7 µM

Structure (SMILES): Cc1c(NC(=O)CCCN2C(=O)c3cccc4cccc(c34)C2=O)c(=O)n(-c2ccccc2)n1C
- IC50: > 100 µM (inactive)

Structure (SMILES): O=C(CCCCCN1C(=O)c2cccc([N+](=O)[O-])c2C1=O)NCc1ccccc1
- IC50: > 100 µM (inactive)

Structure (SMILES): O=C(c1ccco1)N1CCN(C(=O)C2CCN(c3ncnc4c3nc3n4CCCCC3)CC2)CC1
- IC50: > 100 µM (inactive)

Structure (SMILES): CCOc1ccc2nc(N(CCCN(C)C)C(=O)c3ccc(C(=O)c4ccccc4)cc3)sc2c1
- IC50: > 100 µM (inactive)

Structure (SMILES): Cc1cc(C)c2sc(N(CCCN(C)C)C(=O)c3ccc(S(=O)(=O)N4CCc5ccccc5C4)cc3)nc2c1
- IC50: > 100 µM (inactive)

Structure (SMILES): O=C1c2cccc3cccc(c23)C(=O)N1CCN1CCN(CC(O)COc2ccccc2)CC1 (stereo not drawn)
- IC50: > 100 µM (inactive)

Structure (SMILES): O=C1c2cccc3cccc(c23)C(=O)N1CCN1CCN(CC(O)COc2ccc3ccccc3c2)CC1 (stereo not drawn)
- IC50: > 100 µM (inactive)

Structure (SMILES): CCCOC(=O)c1ccc(NC(=O)CCCCCN2C(=O)c3ccccc3C2=O)cc1
- IC50: > 100 µM (inactive)

Structure (SMILES): C=CCc1ccccc1OCC(O)CN1CCN(CCN2C(=O)c3cccc4cccc(c34)C2=O)CC1 (stereo not drawn)
- IC50: > 100 µM (inactive)

Structure (SMILES): O=C(C1CCN(c2ncnc3c2nc2n3CCCCC2)CC1)N1CCN(c2ccccn2)CC1
- IC50: > 100 µM (inactive)

Structure (SMILES): Cc1ccccc1OCC(O)CN1CCN(CCN2C(=O)c3cccc4cccc(c34)C2=O)CC1 (stereo not drawn)
- IC50: > 100 µM (inactive)

Structure (SMILES): CC1(C)Cc2c(sc(NC(=O)COc3ccc(Cl)cc3Cl)c2C(N)=O)C(C)(C)N1
- IC50: > 100 µM (inactive)

Structure (SMILES): O=C(CCCn1c(=O)c2ccccc2n(Cc2ccc(Cl)cc2)c1=O)NC1CCN(Cc2ccccc2)CC1
- IC50: > 100 µM (inactive)

Structure (SMILES): CN(C)CCCN(C(=O)c1ccc(S(=O)(=O)N2CCCC2)cc1)c1nc2ccc(Br)cc2s1
- IC50: > 100 µM (inactive)

Structure (SMILES): CCc1ccc(OCC(O)CN2CCC(CN3C(=O)c4cccc5cccc(c45)C3=O)CC2)cc1 (stereo not drawn)
- IC50: > 100 µM (inactive)

Structure (SMILES): CCCN1CCN(C(=O)C2CCN(c3ncnc4c3nc3n4CCCCC3)CC2)CC1
- IC50: > 100 µM (inactive)

Structure (SMILES): Cc1ccccc1CN1CCC(CNC(=O)C2CCCN(c3ncnc4c3nc3n4CCCCC3)C2)CC1 (stereo not drawn)
- IC50: > 100 µM (inactive)

Structure (SMILES): Cc1ccc2c(c1)C1CN(C)CCC1N2C(=O)CCCN1C(=O)c2cccc3cccc(c23)C1=O (stereo not drawn)
- IC50: > 100 µM (inactive)

Structure (SMILES): Cc1ccc2nc(N(CCCN(C)C)C(=O)c3ccc4c(c3)CCCC4)sc2c1
- IC50: > 100 µM (inactive)

Structure (SMILES): O=C(NCC1CCN(Cc2ccc(Cl)cc2)CC1)C1CCCN(c2ncnc3c2nc2n3CCCCC2)C1 (stereo not drawn)
- IC50: > 100 µM (inactive)

Structure (SMILES): CC1CC(C)CN(C(=O)C2CCN(c3ncnc4c3nc3n4CCCCC3)CC2)C1 (stereo not drawn)
- IC50: > 100 µM (inactive)

Structure (SMILES): O=C(c1ccc(S(=O)(=O)N2CCCC2)cc1)N1CCC(CN2C(=O)c3cccc4cccc(c34)C2=O)CC1
- IC50: > 100 µM (inactive)

Structure (SMILES): COC(=O)C1=C(NC(=O)CCCCCN2C(=O)c3ccccc3C2=O)SC2CCCC12 (stereo not drawn)
- IC50: > 100 µM (inactive)

Structure (SMILES): CC1CCCCN1C(=O)C1CCN(c2ncnc3c2nc2n3CCCCC2)CC1 (stereo not drawn)
- IC50: > 100 µM (inactive)

Structure (SMILES): O=C(NCC1CCN(Cc2cccc(Cl)c2)CC1)C1CCCN(c2ncnc3c2nc2n3CCCCC2)C1 (stereo not drawn)
- IC50: > 100 µM (inactive)

Structure (SMILES): O=C1c2cccc3cccc(c23)C(=O)N1CCN1CCN(CC(O)COc2ccc3c(c2)OCO3)CC1 (stereo not drawn)
- IC50: > 100 µM (inactive)

Structure (SMILES): COc1ccc(C)c2sc(N(CCCN(C)C)C(=O)c3ccc(S(=O)(=O)N(C)C)cc3)nc12
- IC50: > 100 µM (inactive)

Structure (SMILES): CC(NC(=O)CCCCCN1C(=O)c2ccccc2C1=O)c1nc(-c2ccccc2)no1 (stereo not drawn)
- IC50: > 100 µM (inactive)

Structure (SMILES): CC(=O)c1ccc(OCC(O)CN2CCN(CCN3C(=O)c4cccc5cccc(c45)C3=O)CC2)cc1 (stereo not drawn)
- IC50: 73.5 µM

Structure (SMILES): O=C(CCCCCN1C(=O)c2ccccc2C1=O)Nc1ccc(S(=O)(=O)Nc2ncccn2)cc1
- IC50: > 100 µM (inactive)

Structure (SMILES): Cc1[nH]c2c(Cl)c(Cl)ccc2c1CCNC(=O)CCCCCN1C(=O)c2ccccc2C1=O
- IC50: > 100 µM (inactive)

Structure (SMILES): Cc1cc(C)c2sc(N(CCCN(C)C)C(=O)c3ccc(S(=O)(=O)N(C)Cc4ccccc4)cc3)nc2c1
- IC50: > 100 µM (inactive)

Structure (SMILES): CN(C)CCCN(C(=O)c1ccc(C(=O)c2ccccc2)cc1)c1nc2cc3c(cc2s1)OCCO3
- IC50: 85.3 µM

Structure (SMILES): O=C(CCCCCN1C(=O)c2ccccc2C1=O)NCc1ccccc1
- IC50: > 100 µM (inactive)

Structure (SMILES): COc1ccc2sc(N(CCCN(C)C)C(=O)c3ccc(S(=O)(=O)N4CCc5ccccc5C4)cc3)nc2c1
- IC50: > 100 µM (inactive)

Structure (SMILES): O=C(NCCCN1CCN(c2ccc(F)cc2)CC1)C1CCCN(c2ncnc3c2nc2n3CCCCC2)C1 (stereo not drawn)
- IC50: > 100 µM (inactive)

Structure (SMILES): CN(C)CCCN(C(=O)c1ccc(S(=O)(=O)N(C)Cc2ccccc2)cc1)c1nc2cc3c(cc2s1)OCO3
- IC50: 81 µM

Structure (SMILES): CN(C)CCCN(C(=O)c1ccc(S(=O)(=O)N2CCCCCC2)cc1)c1nc2ccc(Br)cc2s1
- IC50: > 100 µM (inactive)

Structure (SMILES): COc1ccc(CCNC(=O)CCCCCN2C(=O)c3ccccc3C2=O)cc1
- IC50: > 100 µM (inactive)

Structure (SMILES): Cc1cc(OCC(O)CN2CCN(CCN3C(=O)c4cccc5cccc(c45)C3=O)CC2)ccc1C(C)C (stereo not drawn)
- IC50: > 100 µM (inactive)

Structure (SMILES): O=C(C1COc2ccccc2O1)N1CCN(CCN2C(=O)c3cccc4cccc(c34)C2=O)CC1 (stereo not drawn)
- IC50: > 100 µM (inactive)

Structure (SMILES): CC1CN(S(=O)(=O)c2ccc(NC(=O)CCCCCN3C(=O)c4ccccc4C3=O)cc2)CC(C)O1 (stereo not drawn)
- IC50: > 100 µM (inactive)

Structure (SMILES): CNCc1cc(Br)c(OCC(=O)Nc2ccccc2OC)c(OC)c1
- IC50: > 100 µM (inactive)
